# Read-outs that look alike come from different tables or passages of the source.
# Assays:
# boar spermatozoa [1] = assay: cells; type: cell-based; details: for EC50: Spermatozoa, 24 h, read-out: EC50 SMID 1 day
# boar spermatozoa [2] = assay: cells; type: cell-based; details: for EC50: Spermatozoa
# [3] = test system: porcine kidney PK-15 cells; assay: cells; type: cell-based; details: for EC50: Sus scrofa, read-out: EC50 ICP 2 days
# M. circinelloides = test system: M. circinelloides; design: method as in doi:10.1211/146080800128736312, PMID 21054501, PMID 22130129, PMID 23538442; details: cited from earlier work
# [4] = boar sperm, exposure 1 day, SD between three measurements < ± 35%
# [5] = boar sperm, exposure 0.5–1 h, twofold dilutions, three measurements within one dilution step
# [6] = boar sperm, exposure 1–2 days, twofold dilutions
# [7] = PK-15 cells, exposure 2 days, SD between three measurements < ± 35%
# [8] = PK-15, 48 h, PK-15 cells, exposure 2 days, SD between three measurements < ± 35%
# [9] = boar sperm, exposure 0.5–1 h, twofold dilutions, three measurements within one dilution step, read-out: EC50 BSMI 0.5–1 h
# [10] = boar sperm, exposure 1–2 days, twofold dilutions, read-out: EC50 BSMI 1–2 days
compound,measurement,setting,value
Alamethicin,EC50 SMID 1 day,boar spermatozoa [1]; [4],0.2 mg/L
same,EC50 BSMI 0.5–1 h,boar spermatozoa [2]; [5],5 mg/L
same,EC50 BSMI 1–2 days,boar spermatozoa [2]; [6],0.2 mg/L
same,EC50 ICP 2 days,[3]; [7],8 mg/L
Oc1cc(Cl)ccc1Oc1ccc(Cl)cc1Cl [triclosan],EC50,boar spermatozoa [1]; [4],2 mg/L
same,EC50,[3]; [8],9.4 mg/L
CC1(C)C=Cc2c(ccc3c2[N+]([O-])=C2C(C)(C)[C@@H]4CC56CCCN5C(=O)[C@]4(NC6=O)[C@H]4N5C(=O)[C@@]67CCCN6C(=O)[C@@]56[C@H](c5c(n(O)c8c9c(ccc58)OC(C)(C)C=C9)C(C)(C)[C@@H]6C7)[C@]234)O1 [Stephacidin B],EC50 SMID 1 day,boar spermatozoa [1]; [4],>2 mg/L
same,EC50 BSMI 0.5–1 h,boar spermatozoa [2]; [5],0.5 mg/L
same,EC50 BSMI 1–2 days,boar spermatozoa [2]; [6],0.2 mg/L
same,EC50 ICP 2 days,[3]; [7],0.2 mg/L
CC1(C)C=Cc2c(ccc3c2[N+]([O-])=C2C3=C[C@@]34NC(=O)[C@]5(CCCN5C3=O)C[C@H]4C2(C)C)O1 [Avrainvillamide],EC50,boar spermatozoa [1]; [4],> 2 mg/L
same,EC50,boar spermatozoa [2]; [9],0.6 mg/L
same,EC50,boar spermatozoa [2]; [10],0.3 mg/L
same,EC50,[3]; [8],0.3 mg/L
C[C@@H]1Cc2c(Cl)cc(C(=O)N[C@@H](Cc3ccccc3)C(=O)O)c(O)c2C(=O)O1 [Ochratoxin A],EC50,boar spermatozoa [1]; [4],> 50 mg/L
same,EC50,boar spermatozoa [2]; [9],> 100 mg/L
same,EC50,boar spermatozoa [2]; [10],> 50 mg/L
same,EC50,"[3]; 48 h, PK-15 cells, exposure 2 days, SD between three measurements < ± 35%",> 50 mg/L
COc1cc2c(c3oc4cccc(O)c4c(=O)c13)[C@@H]1C=CO[C@@H]1O2 [Sterigmatocystin],EC50 SMID 1 day,boar spermatozoa [1],>20 mg/L
same,EC50 BSMI 0.5–1 h,boar spermatozoa [2],>100 mg/L
same,EC50 BSMI 1–2 days,boar spermatozoa [2],>20 mg/L
same,EC50 ICP 2 days,[3],0.25 mg/L
same,toxicity to proliferating PK-15 cells in the ICP assay,[3],highly toxic
CC(C)=C[C@H]1C[C@H](C)[C@]2(CC[C@]3(C)C[C@H]4[C@H](C(=O)C[C@@]4(C)O)/C(C=O)=C\C[C@H]32)O1 [Ophiobolin A],EC50,boar spermatozoa [1]; [4],2 mg/L
same,EC50,boar spermatozoa [2]; [9],2.5 mg/L
same,EC50,boar spermatozoa [2]; [10],0.25 mg/L
same,treatment concentration at which apoptosis-like cell death process was observed,M. circinelloides,1.6 µg/mL
same,EC50 ICP 2 days,[3]; [7],0.2 mg/L

# From PMC6949950, “Screening Mold Colonies by Using Two Toxicity Assays Revealed Indoor Strains of Aspergillus calidoustus Producing Ophiobolins G and K” (Toxins, 2019)
